Assay type in all cases: functional, cell-based
The target in test [1] is T1, ATP-dependent translocase ABCB1 (Homo sapiens, UniProt P08183). Description: TP_TRANSPORTER: increase in Calcein-AM intracellular accumulation in MDR1-expressing LLC-PK1 cells.
Test [2] addresses T1, ATP-dependent translocase ABCB1. Briefly: TP_TRANSPORTER: increase in Vinblastine intracellular accumulation in MDR1-expressing LLC-PK1 cells.
The target is the same in test [3]. Briefly: TP_TRANSPORTER: inhibition of Digoxin transepithelial transport (basal to apical) (Digoxin: 5 uM) in Caco-2 cells.

SMILES strings stand for the structures.

T1 sequence (P08183 whole entry): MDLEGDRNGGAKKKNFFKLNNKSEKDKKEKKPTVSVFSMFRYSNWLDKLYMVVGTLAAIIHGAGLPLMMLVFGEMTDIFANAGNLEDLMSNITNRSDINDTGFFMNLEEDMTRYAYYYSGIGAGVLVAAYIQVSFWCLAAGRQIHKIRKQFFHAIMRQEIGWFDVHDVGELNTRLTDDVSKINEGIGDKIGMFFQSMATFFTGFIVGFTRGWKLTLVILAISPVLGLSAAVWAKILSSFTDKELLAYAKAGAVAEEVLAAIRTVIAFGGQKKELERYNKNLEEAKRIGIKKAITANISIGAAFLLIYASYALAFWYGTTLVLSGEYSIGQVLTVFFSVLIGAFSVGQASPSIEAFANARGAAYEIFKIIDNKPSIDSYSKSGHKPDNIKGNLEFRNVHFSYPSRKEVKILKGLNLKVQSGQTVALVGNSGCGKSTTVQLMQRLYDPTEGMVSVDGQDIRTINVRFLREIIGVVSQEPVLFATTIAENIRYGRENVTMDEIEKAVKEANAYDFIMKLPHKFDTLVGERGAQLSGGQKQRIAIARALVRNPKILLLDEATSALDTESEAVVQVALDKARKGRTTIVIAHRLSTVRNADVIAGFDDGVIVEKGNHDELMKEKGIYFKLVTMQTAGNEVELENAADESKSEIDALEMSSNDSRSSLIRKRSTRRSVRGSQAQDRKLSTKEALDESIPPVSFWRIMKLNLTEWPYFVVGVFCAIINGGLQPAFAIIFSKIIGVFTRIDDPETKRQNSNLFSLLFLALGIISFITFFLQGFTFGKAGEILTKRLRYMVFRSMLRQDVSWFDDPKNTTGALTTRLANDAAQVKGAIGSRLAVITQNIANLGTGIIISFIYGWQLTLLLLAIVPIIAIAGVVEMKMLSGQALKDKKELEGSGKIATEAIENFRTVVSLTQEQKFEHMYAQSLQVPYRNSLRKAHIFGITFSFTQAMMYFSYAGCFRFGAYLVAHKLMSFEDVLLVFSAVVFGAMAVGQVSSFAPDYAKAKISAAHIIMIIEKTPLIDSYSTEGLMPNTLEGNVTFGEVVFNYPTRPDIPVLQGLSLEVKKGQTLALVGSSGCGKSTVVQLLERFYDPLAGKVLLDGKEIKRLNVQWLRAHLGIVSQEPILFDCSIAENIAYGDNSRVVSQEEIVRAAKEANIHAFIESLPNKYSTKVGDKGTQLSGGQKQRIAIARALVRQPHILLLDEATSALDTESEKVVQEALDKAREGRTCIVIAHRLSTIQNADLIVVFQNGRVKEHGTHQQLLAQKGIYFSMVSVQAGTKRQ

Usually Ki stands for the equilibrium dissociation constant of an inhibitor or competing ligand from its target. Consider `CC(C)C[C@H]1C(=O)N2CCC[C@H]2[C@]2(O)O[C@](NC(=O)[C@@H]3C=C4c5cccc6[nH]c(Br)c(c56)C[C@H]4N(C)C3)(C(C)C)C(=O)N12` [BROMOCRIPTINE], for which the results for the inhibition constant (Ki) in test [1] and in test [2] were 2.81 µM and 3.96 µM, respectively.

As to `CC(C)[C@@]1(NC(=O)[C@@H]2C=C3c4cccc5[nH]cc(c45)C[C@H]3N(C)C2)O[C@@]2(O)[C@@H]3CCCN3C(=O)[C@H](Cc3ccccc3)N2C1=O` [ERGOCRISTINE], the results for the inhibition constant Ki in test [1] and in test [2] were 42.8 µM and 13.3 µM, respectively. The like results for `CC(C)C[C@H]1C(=O)N2CCC[C@H]2[C@]2(O)O[C@](NC(=O)[C@@H]3C[C@@H]4c5cccc6[nH]cc(c56)C[C@H]4N(C)C3)(C(C)C)C(=O)N12` [DIHYDROERGOCRYPTINE] were, in that order, 360 µM and 19.8 µM. For `CN1C[C@H](C(=O)N[C@]2(C)O[C@@]3(O)[C@@H]4CCCN4C(=O)[C@H](Cc4ccccc4)N3C2=O)C[C@@H]2c3cccc4[nH]cc(c34)C[C@H]21` [DIHYDROERGOTAMINE] the same measures were over 1000 µM and 120 µM. The term IC50 denotes the point on the concentration scale where inhibition reaches its midpoint. A low value points to greater potency in that assay. In the case of `COc1ccc(CCCN2CCC(Cc3ccccc3)CC2)cc1OC`, in test [3], half-maximal inhibition (IC50) required 2300 nM. In other words, the single-digit micromolar range. With `CC(C)[C@H]1C(=O)N2CCC[C@H]2[C@]2(O)O[C@](NC(=O)[C@@H]3C=C4c5cccc6[nH]cc(c56)C[C@H]4N(C)C3)(C(C)C)C(=O)N12` [ERGOCORNINE], the inhibition constant (Ki) is 105 µM in test [1] and 24.5 µM in test [2]. The like results for `CC(C)[C@@]1(NC(=O)[C@@H]2C[C@@H]3c4cccc5[nH]cc(c45)C[C@H]3N(C)C2)O[C@@]2(O)[C@@H]3CCCN3C(=O)[C@H](Cc3ccccc3)N2C1=O` [DIHYDROERGOCRISTINE] were, in that order, 511 µM and 16 µM. Take `CN1C[C@H](C(=O)N[C@]2(C)O[C@@]3(O)[C@@H]4CCCN4C(=O)[C@H](Cc4ccccc4)N3C2=O)C=C2c3cccc4[nH]cc(c34)C[C@H]21` [ERGOTAMINE]: the Ki is 98.9 µM in test [1] and 14.2 µM in test [2]. For `C[C@@H](CO)NC(=O)[C@@H]1C=C2c3cccc4[nH]cc(c34)C[C@H]2N(C)C1` [ERGONOVINE] the same measures were 115 µM and over 100 µM.

Regarding `CC(C)C[C@H]1C(=O)N2CCC[C@H]2[C@]2(O)O[C@](NC(=O)[C@@H]3C=C4c5cccc6[nH]cc(c56)C[C@H]4N(C)C3)(C(C)C)C(=O)N12` [ERGOCRYPTINE], the figures for the Ki in test [1] and in test [2] were 12.2 µM and 6.43 µM, respectively. For `COC(=O)[C@H]1[C@H]2C[C@@H]3c4[nH]c5cc(OC)ccc5c4CCN3C[C@H]2C[C@@H](OC(=O)c2cc(OC)c(OC)c(OC)c2)[C@@H]1OC` [RESERPINE] the same measures were 12.2 µM and 0.97 µM.

With `OC(Cn1cncn1)(Cn1cncn1)c1ccc(F)cc1F` [FLUCONAZOLE], the Ki in test [1] is over 1000 µM; in test [2], over 400 µM.

The values are drawn from ChEMBL document CHEMBL2074392, “Three-dimensional quantitative structure-activity relationships of inhibitors of P-glycoprotein” (Mol Pharmacol, 2002).
